This note sets out measurements from PMC5472302, “Dicumarol inhibits PDK1 and targets multiple malignant behaviors of ovarian cancer cells” (PLoS ONE, 2017).

The structures appear in SMILES notation.

The test has as its target Pyruvate dehydrogenase kinase 1 (PDK1) (Homo sapiens, UniProt Q15118). The experiment in a line: ELISA-based in-well kinase assay: active PDK1 (Abcam) phosphorylating captured PDHA1 at Ser232. Type of test: biochemical. (An ELISA detects its analyte on a solid surface through an enzyme-linked reagent.)

Sequence of Pyruvate dehydrogenase kinase 1 (PDK1) (Q15118 29-436): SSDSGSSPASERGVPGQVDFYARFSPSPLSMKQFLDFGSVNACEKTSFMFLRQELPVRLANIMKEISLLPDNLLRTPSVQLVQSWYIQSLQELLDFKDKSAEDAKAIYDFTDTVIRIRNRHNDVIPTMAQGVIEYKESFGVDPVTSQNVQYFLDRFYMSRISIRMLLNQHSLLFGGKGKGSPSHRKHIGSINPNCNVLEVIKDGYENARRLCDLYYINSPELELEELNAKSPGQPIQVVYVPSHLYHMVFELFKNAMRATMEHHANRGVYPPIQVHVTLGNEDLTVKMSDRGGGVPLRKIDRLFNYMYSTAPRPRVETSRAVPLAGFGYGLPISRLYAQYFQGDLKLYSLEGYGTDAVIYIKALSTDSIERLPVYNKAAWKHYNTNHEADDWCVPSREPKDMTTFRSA

In the case of `O=c1oc2ccccc2c(O)c1Cc1c(O)c2ccccc2oc1=O` [DIC, dicumarol], the midpoint of inhibition, the IC50, lay at 19.42 ± 0.032 µM.
